Tested on: 5XFAD mice
Assay: Contextual fear conditioning (CFC), freezing response
Type: in vivo
Conditions: m-3M3FBS-injected 5XFAD mice
From the text: To test the acute effect of AβO on hippocampal S-eCB mobilization, hippocampal slices from Sprague-Dawley rats (SD, 2 to 3 weeks old, […] Biolink, Co., Ltd., Korea) were used. Male and female rats were used in all in vitro experiments. To test the chronic effect of AβO on hippocampus-dependent memory impairments caused by amyloidosis, the 5XFAD mouse model (6 to 7 months old, #34840-JAX, Jackson Laboratory, USA), which is a mouse model of Alzheimer's disease that mimics AβO depositions, was used. C57BL/6 mice (6 to 7 months old, KOATECH, Korea) were used as wild type (WT) control mice for 5XFAD mice. Male 5XFAD and C57BL/6 mice were used for all in vivo behavioral experiments. […] A ceiling-mounted video camera recorded the behavior activity, and fed the corresponding video into a customized computer software (MATLAB, USA). […] Behavioral mobility data collected during the contextual conditioning experiments were automatically detected using the gray scaling method of EthoVision XT (Noldus, USA). […] Since a body-freezing response (freezing) is considered a conditioned response to CFC during the memory session, the body-freezing response was detected when the threshold was below the 2.0% threshold of mobility. That is, this means that there could be no more than a 2.0% change in the pixels of a detected mouse between the current sample and the previous sample. […]

**Q.** How did the “freezing responses during memory recall compared to DMSO-injected 5XFAD mice” value turn out when `Cc1cc(C)c(S(=O)(=O)Nc2cccc(C(F)(F)F)c2)c(C)c1` [m-3M3FBS] was run?
**A.** remarkably increased
